{
  "source": "patent USRE40387E1",
  "about": "“Pharmaceutical compositions, dosage forms and methods for oral administration of epothilones” (Bristol-Myers Squibb Company, priority 2001, dated 2008)",
  "assay": "Pharmacokinetics of oral and IV Compound A in cancer patients",
  "type": "in vivo",
  "protocol": "Patients with advanced malignancies were administered Compound A weekly as a 30-minute infusion (a course=3 intravenous weekly administrations). […] Serial plasma sampling was obtained on day 6 and day 1 of course 1 to assess pharmacokinetics by an LC/MS/MS. The LC/MS/MS assay was the same as used in Example 1.\nFollowing oral administration on day 6, 7 mL blood samples was collected into Becton Dickinson Vacutainer tubes with K3EDTA as anticoagulent (lavender-colored top) according to the following schedule (expressed as hours:minutes from the start of the oral administration): predose, 00:15, 00:30, 00:45, 01:00, 01:30, 02:00, 03:00, 04:00, 06:00, 08:00, 24:00, 48:00, and 72:00. Following IV administration on day 1, 7 mL blood samples were collected into Becton Dickinson Vacutainer tubes with K3EDTA as anticoagulent (lavender-colored top) according to the following schedule (expressed as hours:minutes from the start of the IV infusion): predose, 00:15, 00:30 (end-of infusion), 00:45, 01:00, 01:30, 02:00, 03:00, 04:00, 06:00, 08:00, 24:00, 48:00, and 72:00.\nImmediately after blood collection, the Vacutainer tubes were inverted several times to ensure mixing with the anticoagulant and then immediately placed on crushed ice. Within 30 minutes of collection, samples were centrifuged for 5 minutes at approximately 2000×g and 0 to 5 EC 5° C. The plasma was then transferred to separate pre-labeled screw-capped polypropylene tubes and stored at −70 EC −70° C. until bioanalysis. Plasma concentrations of Compound A were analyzed using the LC/MS/MS assay described in Example 1.\nThe plasma concentration versus time data were analyzed using non-compartmental methods. The pharmacokinetic parameters determined for Compound A included the maximum observed plasma concentration (Cmax), time to reach Cmax (Tmax), area under the plasma concentration time curve from time zero to the time of last sampling time T(AUC (0−T)).",
  "key": {"[1]": {"conditions": "20 mg/m^2, oral solution with buffer"}, "[2]": {"conditions": "25 mg/m^2, oral solution with buffer"}, "[3]": {"conditions": "305 mg/m^2 as printed, oral solution with buffer"}},
  "data": [
    {"compound": "C/C(=C\\c1csc(C)n1)[C@@H]1C[C@@H]2O[C@]2(C)CCC[C@H](C)[C@H](O)[C@@H](C)C(=O)C(C)(C)[C@@H](O)CC(=O)N1", "note": "(relative stereo) [Compound (A), [1S-[1R*,3R*(E),7R*,10S*,11R*,12R*,16S*]]-7,11-dihydroxy 8,8,10,12,16-pentamethyl-3-[1-methyl-2-(2-methyl-4-thiazolyl)ethenyl-4-aza-17-oxobicyclo[14.1.0]heptadecane-5,9-dione]", "values": [
      {"measurement": "AUC(0-T), mean", "setting": "20 mg/m^2, IV", "value": 796, "unit": "ng·h/mL"},
      {"measurement": "TMAX, median", "setting": "20 mg/m^2, IV", "value": 15, "unit": "min"},
      {"measurement": "CMAX, mean", "setting": "20 mg/m^2, IV, N 3", "value": 251, "unit": "ng/mL"},
      {"measurement": "% F, mean", "setting": "[1]", "value": 43.5, "unit": "%"},
      {"measurement": "AUC(0-T), mean", "setting": "[1]", "value": 404, "unit": "ng·h/mL"},
      {"measurement": "TMAX, median", "setting": "[1]", "value": 60, "unit": "min"},
      {"measurement": "CMAX, mean", "setting": "20 mg/m^2, oral solution with buffer, N 3", "value": 142, "unit": "ng/mL"},
      {"measurement": "AUC(0-T), mean", "setting": "25 mg/m^2, IV", "value": 848, "unit": "ng·h/mL"},
      {"measurement": "TMAX, median", "setting": "25 mg/m^2, IV", "value": 30, "unit": "min"},
      {"measurement": "CMAX, mean", "setting": "25 mg/m^2, IV, N 11", "value": 447, "unit": "ng/mL"},
      {"measurement": "% F, mean", "setting": "[2]", "value": 55.6, "unit": "%"},
      {"measurement": "AUC(0-T), mean", "setting": "[2]", "value": 533, "unit": "ng·h/mL"},
      {"measurement": "TMAX, median", "setting": "[2]", "value": 30, "unit": "min"},
      {"measurement": "CMAX, mean", "setting": "25 mg/m^2, oral solution with buffer, N 11", "value": 180, "unit": "ng/mL"},
      {"measurement": "AUC(0-T), mean", "setting": "305 mg/m^2 as printed, IV", "value": 1155, "unit": "ng·h/mL"},
      {"measurement": "TMAX, median", "setting": "305 mg/m^2 as printed, IV", "value": 30, "unit": "min"},
      {"measurement": "CMAX, mean", "setting": "305 mg/m^2 as printed, IV, N 4", "value": 711, "unit": "ng/mL"},
      {"measurement": "% F, mean", "setting": "[3]", "value": 62.2, "unit": "%"},
      {"measurement": "AUC(0-T), mean", "setting": "[3]", "value": 708, "unit": "ng·h/mL"},
      {"measurement": "TMAX, median", "setting": "[3]", "value": 30, "unit": "min"},
      {"measurement": "CMAX, mean", "setting": "305 mg/m^2 as printed, oral solution with buffer, N 4", "value": 274, "unit": "ng/mL"}
    ]}
  ]
}
